{
  "source": "PubChem BioAssay (NCI)",
  "experiment_in_all_cases": "NCI tumour cell line growth inhibition, 48 h",
  "key": {"SN12C renal": {"test_system": "SN12C renal"}, "TK-10 renal": {"test_system": "TK-10 renal"}, "OVCAR-8 ovarian": {"test_system": "OVCAR-8 ovarian"}, "K-562 leukemia": {"test_system": "K-562 leukemia"}, "UACC-257 melanoma": {"test_system": "UACC-257 melanoma"}, "DU-145 prostate": {"test_system": "DU-145 prostate"}, "COLO 205 colon": {"test_system": "COLO 205 colon"}, "HS 578T breast": {"test_system": "HS 578T breast"}, "IGROV1 ovarian": {"test_system": "IGROV1 ovarian"}, "NCI-H460 lung": {"test_system": "NCI-H460 lung"}, "UO-31 renal": {"test_system": "UO-31 renal"}, "NCI-H522 lung": {"test_system": "NCI-H522 lung"}, "RXF 393 renal": {"test_system": "RXF 393 renal"}, "BT-549 breast": {"test_system": "BT-549 breast"}, "MDA-MB-231 breast": {"test_system": "MDA-MB-231 breast"}, "NCI-H226 lung": {"test_system": "NCI-H226 lung"}, "UACC-62 melanoma": {"test_system": "UACC-62 melanoma"}, "HCT-116 colon": {"test_system": "HCT-116 colon"}, "SF-539 CNS": {"test_system": "SF-539 CNS"}, "A549 NSCLC": {"test_system": "A549 NSCLC"}, "RPMI-8226 leukemia": {"test_system": "RPMI-8226 leukemia"}, "SK-MEL-5 melanoma": {"test_system": "SK-MEL-5 melanoma"}, "786-0 renal": {"test_system": "786-0 renal"}, "SNB-19 CNS": {"test_system": "SNB-19 CNS"}, "M14 melanoma": {"test_system": "M14 melanoma"}, "HOP-62 NSCLC": {"test_system": "HOP-62 NSCLC"}, "CAKI-1 renal": {"test_system": "CAKI-1 renal"}, "MDA-MB-435": {"test_system": "MDA-MB-435"}, "SF-268 CNS": {"test_system": "SF-268 CNS"}, "EKVX NSCLC": {"test_system": "EKVX NSCLC"}, "SK-MEL-28 melanoma": {"test_system": "SK-MEL-28 melanoma"}, "HCT-15 colon": {"test_system": "HCT-15 colon"}, "CCRF-CEM leukemia": {"test_system": "CCRF-CEM leukemia"}, "OVCAR-5 ovarian": {"test_system": "OVCAR-5 ovarian"}, "NCI/ADR-RES ovarian": {"test_system": "NCI/ADR-RES ovarian"}, "NCI-H23 lung": {"test_system": "NCI-H23 lung"}, "HCC-2998 colon": {"test_system": "HCC-2998 colon"}, "A498 renal": {"test_system": "A498 renal"}, "SW-620 colon": {"test_system": "SW-620 colon"}, "SNB-75 CNS": {"test_system": "SNB-75 CNS"}, "U251 CNS": {"test_system": "U251 CNS"}, "LOX IMVI melanoma": {"test_system": "LOX IMVI melanoma"}, "OVCAR-4 ovarian": {"test_system": "OVCAR-4 ovarian"}, "SR leukemia": {"test_system": "SR leukemia"}, "PC-3 prostate": {"test_system": "PC-3 prostate"}, "SK-MEL-2 melanoma": {"test_system": "SK-MEL-2 melanoma"}, "KM12 colon": {"test_system": "KM12 colon"}, "T-47D breast": {"test_system": "T-47D breast"}, "HT29 colon": {"test_system": "HT29 colon"}, "SF-295 CNS": {"test_system": "SF-295 CNS"}, "HOP-92 NSCLC": {"test_system": "HOP-92 NSCLC"}, "ACHN renal": {"test_system": "ACHN renal"}, "HL-60(TB) leukemia": {"test_system": "HL-60(TB) leukemia"}, "SK-OV-3 ovarian": {"test_system": "SK-OV-3 ovarian"}, "MOLT-4 leukemia": {"test_system": "MOLT-4 leukemia"}, "OVCAR-3 ovarian": {"test_system": "OVCAR-3 ovarian"}, "MCF7 breast": {"test_system": "MCF7 breast"}},
  "note": "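These data come from cells grown in 96-well plates and exposed to compound for 48 hours at five concentrations. TGI marks complete inhibition of growth.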",
  "data": [
    {"molecule": "C=C1C(=O)OC2C1C(=O)C/C(C)=C/CCC1(C)OC21", "note": "(configuration not stated)", "values": [
      {"measurement": "TGI", "setting": "SN12C renal", "result": 42.6, "unit": "µM"},
      {"measurement": "TGI", "setting": "TK-10 renal", "result": 30.8, "unit": "µM"},
      {"measurement": "TGI", "setting": "OVCAR-8 ovarian", "result": 56.2, "unit": "µM"},
      {"measurement": "TGI", "setting": "K-562 leukemia", "result": 74, "unit": "µM"},
      {"measurement": "TGI", "setting": "UACC-257 melanoma", "result": 41.3, "unit": "µM"},
      {"measurement": "TGI", "setting": "DU-145 prostate", "result": 32.1, "unit": "µM"},
      {"measurement": "TGI", "setting": "COLO 205 colon", "result": 18, "unit": "µM"},
      {"measurement": "TGI", "setting": "HS 578T breast", "result": "> 100", "unit": "µM"},
      {"measurement": "TGI", "setting": "IGROV1 ovarian", "result": 44.9, "unit": "µM"},
      {"measurement": "TGI", "setting": "NCI-H460 lung", "result": 39.7, "unit": "µM"},
      {"measurement": "TGI", "setting": "UO-31 renal", "result": 28.4, "unit": "µM"},
      {"measurement": "TGI", "setting": "NCI-H522 lung", "result": 12, "unit": "µM"},
      {"measurement": "TGI", "setting": "RXF 393 renal", "result": 31.9, "unit": "µM"},
      {"measurement": "TGI", "setting": "BT-549 breast", "result": 54.6, "unit": "µM"},
      {"measurement": "TGI", "setting": "MDA-MB-231 breast", "result": 38.3, "unit": "µM"},
      {"measurement": "TGI", "setting": "NCI-H226 lung", "result": 39.2, "unit": "µM"},
      {"measurement": "TGI", "setting": "UACC-62 melanoma", "result": 66.8, "unit": "µM"},
      {"measurement": "TGI", "setting": "HCT-116 colon", "result": 33.5, "unit": "µM"},
      {"measurement": "TGI", "setting": "SF-539 CNS", "result": 29.3, "unit": "µM"},
      {"measurement": "TGI", "setting": "A549 NSCLC", "result": 37.8, "unit": "µM"},
      {"measurement": "TGI", "setting": "RPMI-8226 leukemia", "result": 31.7, "unit": "µM"},
      {"measurement": "TGI", "setting": "SK-MEL-5 melanoma", "result": 34.5, "unit": "µM"},
      {"measurement": "TGI", "setting": "786-0 renal", "result": 31.8, "unit": "µM"},
      {"measurement": "TGI", "setting": "SNB-19 CNS", "result": "> 100", "unit": "µM"},
      {"measurement": "TGI", "setting": "M14 melanoma", "result": 31.7, "unit": "µM"},
      {"measurement": "TGI", "setting": "HOP-62 NSCLC", "result": 28, "unit": "µM"},
      {"measurement": "TGI", "setting": "CAKI-1 renal", "result": 28.6, "unit": "µM"},
      {"measurement": "TGI", "setting": "MDA-MB-435", "result": 31.1, "unit": "µM"},
      {"measurement": "TGI", "setting": "SF-268 CNS", "result": 50.8, "unit": "µM"},
      {"measurement": "TGI", "setting": "EKVX NSCLC", "result": 61.2, "unit": "µM"},
      {"measurement": "TGI", "setting": "SK-MEL-28 melanoma", "result": 31.6, "unit": "µM"},
      {"measurement": "TGI", "setting": "HCT-15 colon", "result": 28.6, "unit": "µM"},
      {"measurement": "TGI", "setting": "CCRF-CEM leukemia", "result": "> 100", "unit": "µM"},
      {"measurement": "TGI", "setting": "OVCAR-5 ovarian", "result": 33, "unit": "µM"},
      {"measurement": "TGI", "setting": "NCI/ADR-RES ovarian", "result": 99.4, "unit": "µM"},
      {"measurement": "TGI", "setting": "NCI-H23 lung", "result": 38.8, "unit": "µM"},
      {"measurement": "TGI", "setting": "HCC-2998 colon", "result": 35.3, "unit": "µM"},
      {"measurement": "TGI", "setting": "A498 renal", "result": 49.6, "unit": "µM"},
      {"measurement": "TGI", "setting": "SW-620 colon", "result": 40.8, "unit": "µM"},
      {"measurement": "TGI", "setting": "SNB-75 CNS", "result": 46.7, "unit": "µM"},
      {"measurement": "TGI", "setting": "U251 CNS", "result": 37.7, "unit": "µM"},
      {"measurement": "TGI", "setting": "LOX IMVI melanoma", "result": 36.7, "unit": "µM"},
      {"measurement": "TGI", "setting": "OVCAR-4 ovarian", "result": 46, "unit": "µM"},
      {"measurement": "TGI", "setting": "SR leukemia", "result": "> 100", "unit": "µM"},
      {"measurement": "TGI", "setting": "PC-3 prostate", "result": 33.3, "unit": "µM"},
      {"measurement": "TGI", "setting": "SK-MEL-2 melanoma", "result": 35.8, "unit": "µM"},
      {"measurement": "TGI", "setting": "KM12 colon", "result": 53.3, "unit": "µM"},
      {"measurement": "TGI", "setting": "T-47D breast", "result": 32.2, "unit": "µM"},
      {"measurement": "TGI", "setting": "HT29 colon", "result": 43.2, "unit": "µM"},
      {"measurement": "TGI", "setting": "SF-295 CNS", "result": "> 100", "unit": "µM"},
      {"measurement": "TGI", "setting": "HOP-92 NSCLC", "result": 41.7, "unit": "µM"},
      {"measurement": "TGI", "setting": "ACHN renal", "result": 22.2, "unit": "µM"},
      {"measurement": "TGI", "setting": "HL-60(TB) leukemia", "result": 7.23, "unit": "µM"},
      {"measurement": "TGI", "setting": "SK-OV-3 ovarian", "result": "> 100", "unit": "µM"},
      {"measurement": "TGI", "setting": "MOLT-4 leukemia", "result": 47, "unit": "µM"},
      {"measurement": "TGI", "setting": "OVCAR-3 ovarian", "result": 31.8, "unit": "µM"},
      {"measurement": "TGI", "setting": "MCF7 breast", "result": 29.2, "unit": "µM"}
    ]}
  ]
}
